# Assay results as given in PMC10817097, “Caffeic Acid Phosphanium Derivatives: Potential Selective Antitumor, Antimicrobial and Antiprotozoal Agents” (International Journal of Molecular Sciences, 2024).
# “And” between values parts separate entries of the source, which are not always exact repeats. Equal values may be shown once. Read-outs that look alike come from different tables or passages of the source.
# How the values were obtained:
# [1] = test system: non-pathogenic Neff's strain of Acanthamoeba castellanii; set-up: method as in Sifaoui et al. (2017) 44; settings: A. castellanii Neff, 96 h of incubation, ref Sifaoui et al. (2017) 44; cited from earlier work
# [2] = set-up: method as in PMID 11743793; settings: cited from earlier work
# [3] = test system: the other tested bacteria and the strain of Candida albicans; assay: MIC/MBC, other tested bacteria and Candida albicans; type: cell-based; settings: listed as caffeic acid
# Description: The antimicrobial activity of caffeic acid and its semi-synthetic derivates was tested against Gram-positive (Staphylococcus aureus CCM 4750, methicillin-resistant; Staphylococcus aureus CCM 4223, methicillin-susceptible; Enterococcus faecalis CCM 4224) and Gram-negative bacteria (Pseudomonas aeruginosa CCM 3955; Escherichia coli CCM 3954; Klebsiella pneumoniae CCM 4415; Proteus mirabilis CCM 7188), and one strain of a yeast Candida albicans (CCM 8267). Microbial strains were purchased from the Czech Collection of Microorganisms, Brno, Czech Republic, and preserved in aliquots in cryoprotective media at −20 °C until the testing. Revival of cryoprotected bacteria took place by overnight cultivation on blood agar and an additional passage on blood agar. Minimal inhibitory concentrations (MIC) against bacteria were detected by broth microdilution test in sterile 96-well U-shaped microtiter plates (Roll s.a.s., Piove di Sacco, Italy) according to the EUCAST recommendations. The test was performed in 100 μL volumes in microtiter plate wells with a final bacterial concentration of 5 × 10^5 CFU·mL^−1. […] The minimal bactericidal/fungicidal concentrations (MBC/MFC) were detected by point-inoculation of 5 μL aliquots from test wells without visible growth on solid agar media free of antimicrobials. […]
smiles,measurement,setting,value
"O=C(O)C=Cc1ccc(O)c(O)c1 [CA, 3-(3,4-dihydroxyphenyl)-2-propenoic acid, reference compound]",IC50 (50% growth inhibition),[1],> 100 µg/mL
same,plasma levels of caffeic acid,[2]; 1 h after consumption of 300 mL red wine (about 2.8 mg caffeic acid),4.9 ± 0.3 ng/mL
same,plasma levels of caffeic acid,"[2]; 1 h after consumption of 300 mL red wine, approx. conversion",approx. 27.2 nM
same,MIC/MBC,[3],exceeded 6900 μM and > 1200 μg/mL
